Results: patent publication US6906078B2, “Method of using (H+/K+) ATPase inhibitors as antiviral agents” (Pharmacia Corporation, priority 1994, dated 2005)
Where two headings read alike, the source gives them in different places.

Legend:
[1] = molecular target: T1, (H+/K+)-ATPase (Canis lupus familiaris, UniProt P50996); test: Inhibition of (H+/K+)-ATPase from canine gastric mucosa (inorganic phosphate release); assay type: biochemical; settings: canine gastric mucosa microsomes, pH 6.0, 30 min preincubation at 37° C.; read-out: (H+/K+)-ATPase IC50
T1 construct: The microsomes retained at the 15%-30% sucrose interface, after centrifugation at 250,000×g for sixty minutes, were used as the source of (H^+/K^+)-ATPase; from tissue; host or cells: gastric glandular mucosa of mongrel dogs (microsomal fraction, lyophilized)
T1 sequence (P50996 whole entry): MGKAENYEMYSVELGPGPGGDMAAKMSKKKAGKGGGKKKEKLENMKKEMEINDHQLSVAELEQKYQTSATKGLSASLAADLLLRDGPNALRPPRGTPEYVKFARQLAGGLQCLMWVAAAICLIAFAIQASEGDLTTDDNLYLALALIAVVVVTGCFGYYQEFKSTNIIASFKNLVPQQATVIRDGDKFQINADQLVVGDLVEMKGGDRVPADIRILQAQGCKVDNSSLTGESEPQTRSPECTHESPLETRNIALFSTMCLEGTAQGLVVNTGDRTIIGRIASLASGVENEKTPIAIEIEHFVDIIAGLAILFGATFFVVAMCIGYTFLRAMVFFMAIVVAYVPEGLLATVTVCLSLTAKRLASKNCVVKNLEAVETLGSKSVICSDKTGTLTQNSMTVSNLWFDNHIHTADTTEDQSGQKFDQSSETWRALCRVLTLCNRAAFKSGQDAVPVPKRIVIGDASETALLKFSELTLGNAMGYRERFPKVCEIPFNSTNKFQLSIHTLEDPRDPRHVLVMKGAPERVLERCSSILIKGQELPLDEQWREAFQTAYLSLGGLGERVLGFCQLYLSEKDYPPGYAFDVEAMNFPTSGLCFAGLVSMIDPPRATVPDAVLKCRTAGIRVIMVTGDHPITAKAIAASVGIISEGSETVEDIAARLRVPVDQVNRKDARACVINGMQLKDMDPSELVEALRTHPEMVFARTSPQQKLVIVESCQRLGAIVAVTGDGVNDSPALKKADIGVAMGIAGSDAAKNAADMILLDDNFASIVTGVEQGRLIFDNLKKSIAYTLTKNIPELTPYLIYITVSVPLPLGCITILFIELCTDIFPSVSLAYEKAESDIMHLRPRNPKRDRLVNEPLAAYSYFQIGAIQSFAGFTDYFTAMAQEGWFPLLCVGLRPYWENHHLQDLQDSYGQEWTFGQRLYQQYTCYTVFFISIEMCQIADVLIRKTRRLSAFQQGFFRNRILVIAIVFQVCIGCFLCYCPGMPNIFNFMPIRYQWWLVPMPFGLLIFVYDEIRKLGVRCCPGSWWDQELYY
T1 sequence (P33704 whole entry partner): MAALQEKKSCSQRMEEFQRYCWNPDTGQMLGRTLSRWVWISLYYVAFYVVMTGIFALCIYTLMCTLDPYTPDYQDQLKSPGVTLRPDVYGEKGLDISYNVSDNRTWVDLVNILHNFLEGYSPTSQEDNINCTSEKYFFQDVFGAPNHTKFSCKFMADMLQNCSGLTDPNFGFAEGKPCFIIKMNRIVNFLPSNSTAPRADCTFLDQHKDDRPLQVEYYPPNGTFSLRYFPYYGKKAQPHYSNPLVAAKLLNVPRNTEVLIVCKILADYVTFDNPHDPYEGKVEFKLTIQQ
Description: Mongrel dogs weighing 15 to 25 kilograms were fasted for twenty-four hours, with water provided ad libitum. The animals were anesthetized with pentobarbital and the stomachs were removed. Subsequent tissue manipulations and subcellular fractionations were performed at 0° C. to 4° C. After the stomachs were cut open and rinsed with tap water, the antral and cardiac regions were removed and the remaining tissue was rinsed three times in saline. The glandular mucosa was removed mechanically, chopped finely in a medium containing 10 mM Tris hydrochloride (pH 7.4) and 250 mM sucrose, and homogenized. The homogenate was centrifuged at 20,000×g for twenty minutes and the pellet discarded. The supernatant was then centrifuged at 150,000×g for ninety minutes and the supernatant discarded. The pellet was resuspended in the Tris-HCl/sucrose medium by homogenization. Part (2 ml) of the resultant microsomal suspension was layered onto a step gradient consisting of 9 ml of 15% sucrose above 12 ml of 30% sucrose, each sucrose solution being buffered with 10 mM Tris hydrochloride (pH 7.4) containing 0.01% sodium azide. The microsomes retained at the 15%-30% sucrose interface, after centrifugation at 250,000×g for sixty minutes, were used as the source of (H^+/K^+)-ATPase. Microsomal preparations were lyophilized, a process that assured potassium ion permiability, and stored at −10° C. until used.
(H^+/K^+)-ATPase activity for each test compound was determined, in duplicate, by measuring the release of inorganic phosphate, which was assayed according to the method of J. ChandraRajan and L. Klein, Anal. Biochem., 72 , 407 (1976). The (H^+/K^+)-ATPase assay medium consisted of 20 mm mes-Tris (pH 6.0), 5 mM magnesium chloride, 25 mM sucrose, and 4 mM Tris-ATP with or without 20 mM potassium chloride in a total volume of 2 ml. Microsomal suspensions (20 to 60 mcl, containing about 25 mcg protein) were added to the assay medium, without Tris-ATP, and then preincubated with a test compound for thirty minutes at 37° C. The assay was initiated by adding Tris-ATP and the mixture was incubated another thirty minutes at 37° C. A 200-mcl aliquot of the assay mixture was then added to 1.4 ml of a solution consisting of 0.1 M sodium acetate (pH 4.0) and 10% sodium dodecylsulfate, followed by the addition of 200 mcl each of 1% ammonium molybdate and 1% ascorbic acid. At least fifteen minutes later, the optical absorbance at 870 nm (which was proportional to inorganic phosphate concentration up to 100 nmoles per tube, as determined by a standard curve) was obtained. Enzyme activity was linear with incubation time.
(H^+/K^+)-ATPase activity is represented by the difference between the measured activities in the presence of potassium-ion (K^+-stimulated) and in the absence of potassium ion (basal).

[2] = test system: gastric acid secretion; test: Inhibition of gastric acid secretion in gastric fistula beagle dogs (histamine-stimulated); assay type: in vivo; settings: for inhibition in vivo at 3 mg/kg: Canis lupus familiaris, 4 h, read-out: Gastric-Fistula Beagle % Inhibition (3 mg/kg dose)
Text: Adult female beagle dogs weighing 6 to 11 kilograms obtained from Laboratory Research Enterprises (Kalamazoo, Mich.) or from Hazelton Research Animals (Cumberland, Va.) were surgically implanted with a simple Thomas-type gastric cannula. After recovery from surgery, the dogs were trained to stand quietly, fully conscious, in Pavlov-type dog restraining slings and were acclimated to intravenous infusion of histamine dihydrochloride. During the course of these studies, no dog was used more than once a week. All dogs were deprived of food, but not water, for 18 hours prior to each assay. Each dog was initially infused with 0.15 M sodium chloride solution at a constant rate of […]. The volume of gastric secretions, collected in plastic bottles affixed to the cannula, were measured to the nearest 0.1 ml at 30 minute intervals. One of the following protocols was followed, depending on the route chosen for administration of test compound.
Intravenous dosing: Following a 30-minute basal secretion period, test compounds were administered intravenously (i.v.). At the end of an additional 30 minute period, the saline infusion was replaced with histamine dihydrochloride in saline administered at a rate 15 mcg per kilogram of body weight per hour. Histamine stimulation was maintained for a maximum of four hours during which time gastric secretions were collected every 30 minutes. The pH and titratable acidity were determined for samples from each collection period.
Intragastric dosing: Following a 30-minute basal secretion period, he collection bottles were removed, dosing plugs here inserted, and test compounds were administered intragastrically (i.g.) At the end of a 30-minute drug absorption period, the stomachs were emptied, the collection bottles were reattached, and collections were resumed at 30-minute intervals. Simultaneously, the saline infusion was replaced with a continuous intravenous infusion of histamine dihydrochloride in saline administered for four hours at a rate 15 mcg per kilogram of body weight per hour.
Intraduodenal dosing: Dogs were also equipped with duodenal cannulas for intraduodenal (i.d.) administration of test compounds. Dosing was otherwise performed as described for intragastric dosing.
Data from each protocol were analyzed for three gastric sample variables: volume of gastric juice, acid concentration, and total acid output. Percent inhibition for each four-hour experimental period was determined for each parameter by comparison with 3 to 4 controls in which […]. Estimates of ED50's were determined from dose response curves.

[3] = intraduodenal, 3 mg/kg i.d., histamine-stimulated, four-hour period
[4] = iv, 3 mg/kg i.v., histamine-stimulated, four-hour period

Structure (SMILES)	IC50 [1]	inhibition in vivo at 3 mg/kg [2, 3]	inhibition in vivo at 3 mg/kg [2, 4]	melting point	Gastric-Fistula Beagle % Inhibition (3 mg/kg dose) ([2]; 3 mg/kg i.v., histamine-stimulated, four-hour period)	inhibition in vivo at 3 mg/kg ([2]; intraduodenal)	inhibition in vivo at 3 mg/kg ([2]; iv)
Nc1ccccc1C[S+]([O-])c1nc2ccccc2[nH]1 (centres unmarked) [Example 3, 2-[(1H-Benzimidazol-2-ylsulfinyl)methyl]benzenamine]	4.3 µM	53%	59%	164 to 165 °C			
CC(=O)Nc1ccccc1C[S+]([O-])c1nc2ccccc2[nH]1 (centres unmarked) [Example 6, N-[2-[(1H-Benzimidazol-2-ylsulfinyl)methyl]phenyl]acetamide]	> 100 µM		37%	201 to 202.5 °C			
Cc1cccc2[nH]c([S+]([O-])Cc3ccccc3N)nc12.Cc1cccc2[nH]c([S+]([O-])Cc3ccccc3N)nc12.O (centres unmarked) [Example 8, 2-[[(4-Methyl-1H-benzimidazol-2-yl)sulfinyl]methyl]benzenamine hemihydrate]	7.4 µM				60 i.v. %		
Nc1ccc(Cl)cc1C[S+]([O-])c1nc2ccccc2[nH]1 (centres unmarked) [Example 16, 2-[(1H-Benzimidazol-2-ylsulfinyl)methyl]-4-chlorobenzenamine]	130 µM		24%	210 to 211 °C			
Nc1cc(Cl)ccc1C[S+]([O-])c1nc2ccccc2[nH]1 (centres unmarked) [Example 18, 2-[(1H-Benzimidazol-2-ylsulfinyl)methyl]-5-chlorobenzenamine]	24 µM		13%	173.5 to 175.5 °C			
Cc1cccc(N)c1C[S+]([O-])c1nc2ccccc2[nH]1 (centres unmarked) [Example 24, 2-[(1H-Benzimidazol-2-ylsulfinyl)methyl]-3-methylbenzenamine ¼ hydrate]	0.66 µM		73%				
Cc1ccc(N)c(C[S+]([O-])c2nc3ccccc3[nH]2)c1 (centres unmarked) [Example 26, 2-[(1H-Benzimidazol-2-ylsulfinyl)methyl]-4-methylbenzenamine]	2.1 µM		67%				
Cc1cccc(C[S+]([O-])c2nc3ccccc3[nH]2)c1N (centres unmarked) [Example 28, 2-[(1H-Benzimidazol-2-ylsulfinyl)methyl]-6-methylbenzenamine]	3.2 µM	44%	93%	156 to 157 °C			
COc1ccc2[nH]c([S+]([O-])Cc3cccc(C)c3N)nc2c1 (centres unmarked) [Example 36, 2-[[(5-Methoxy-1H-benzimidazol-2-yl)sulfinyl]methyl]-6-methylbenzenamine]	5.4 µM	72%	96%	142 to 144 °C			
CCc1ccc(N)c(C[S+]([O-])c2nc3ccccc3[nH]2)c1 (centres unmarked) [Example 37, 2-[(1H-Benzimidazol-2-ylsulfinyl)methyl]-4-ethylbenzenamine]	2 µM	62%		155 to 156 °C			
CCc1cccc(C[S+]([O-])c2nc3ccccc3[nH]2)c1N (centres unmarked) [Example 38, 2-[(1H-Benzimidazol-2-ylsulfinyl)methyl]-6-ethylbenzenamine]	3.9 µM	21%					
Nc1ccc(C(F)(F)F)cc1C[S+]([O-])c1nc2ccccc2[nH]1 (centres unmarked) [Example 49, 2-[(1H-Benzimidazol-2-ylsulfinyl)methyl]-4-(trifluoromethyl)benzenamine]	> 100 µM	16%		185 to 187 °C			
CCCCc1ccc(N)c(C[S+]([O-])c2nc3ccccc3[nH]2)c1 (centres unmarked) [Example 51, 2-[(1H-Benzimidazol-2-ylsulfinyl)methyl]-4-butylbenzenamine]	2.6 µM	19%		146 to 148 °C			
COC(=O)c1cccc(C[S+]([O-])c2nc3ccccc3[nH]2)c1N (centres unmarked) [Example 69, Methyl 2-amino-3-[(1H-benzimidazol-2-ylsulfinyl)methyl]benzoate hydrate]	153 µM					28%	
Nc1ccc(F)cc1C[S+]([O-])c1nc2ccccc2[nH]1 (centres unmarked) [Example 76, 2-[(1H-Benzimidazol-2-ylsulfinyl)methyl]-4-fluorobenzenamine]	24.9 µM			184 to 185 °C			
Nc1ncccc1C[S+]([O-])c1nc2ccccc2[nH]1 (centres unmarked) [Example 81, 3-[(1H-Benzimidazol-2-ylsulfinyl)methyl]-2-pyridinamine hydrate]	≥ 100 µM						41%
Nc1cccc(C[S+]([O-])c2nc3ccccc3[nH]2)n1 (centres unmarked) [Example 85, 6-[(1H-Benzimidazol-2-ylsulfinyl)methyl]-2-pyridinamine]	2.5 µM		59%				
COc1ccc2[nH]c([S+]([O-])Cc3cccc(N)n3)nc2c1 (centres unmarked) [Example 91, 6-[[(5-Methoxy-1H-benzimidazol-2-yl)sulfinyl]-methyl]-2-pyridinamine]	4.5 µM		46%				
CCNc1cccc(C[S+]([O-])c2nc3ccccc3[nH]2)n1 (centres unmarked) [Example 109, 6-[(1H-Benzimidazol-2-ylsulfinyl)methyl]-N-ethyl-2-pyridinamine]	20 µM	58%					
